Row | melting point | SMILES
1 | 93.5 to 95 °C | O=[N+]([O-])c1ccc(NS(=O)(=O)C(F)(F)F)c(OC2CCCCC2)c1
2 | 55 to 65 °C | Cc1cc2c(s1)Nc1ccccc1N=C2N1CCN(C)[C@@H](COCc2ccccc2)C1
3 | 149 to 155 °C | O=[N+]([O-])c1cc(Cl)cc2cccnc12
4 | 132 to 133 °C | Fc1cccc(F)c1COc1cccnc1NC(=S)Nc1ccccc1
5 | 125 to 127 °C | C=C1c2ccc(OC)cc2CC(=NO)c2ccccc21
6 | 122 to 123 °C | CC(C)(C)OC(=O)N1CCN(c2cccc([N+](=O)[O-])c2)C(=O)C1
7 | 172 to 173 °C | COc1cccc([C@H]2O[C@H](CC(=O)Nc3cc(C(=O)O)ccc3C)C(=O)N(CC(C)(C)CO)c3ccc(Cl)cc32)c1OC
8 | 24 °C | C=C(C)C(=O)N1CC(C)OC1(C)C (stereo not given)
9 | 188 to 190 °C | Cc1cn(C2CC3OCC3O2)c(=O)[nH]c1=O (stereo not given)
10 | 112 to 113 °C | Cc1c(C)c2c(c(C)c1N)CC(C)(CN1CCC(c3ccccc3)CC1)O2 (stereo not given)
11 | 178 to 180 °C | Cn1c(-c2ccccc2Nc2cccc(C(F)(F)F)c2)n[nH]c1=O
12 | 187 to 188 °C | CCCCS(=O)Cc1ccc(CS(=O)CCCC)cc1 (stereo not given)
13 | 154 to 156 °C | Cn1cc(C(=O)NCc2ccc(Cl)cc2)c(=O)c2cc(COCC[C@@H](O)c3ccccc3)sc21
14 | 97.8 to 99.3 °C | O=C(c1ccc2nonc2c1)N1CCCC1
15 | 113 to 116 °C | COC(=O)c1scc(C)c1NC(=S)N1CCN(c2ncnc3cc(OC)c(OC)cc23)CC1
16 | 77 to 80 °C | Cc1cc(S(=O)(=O)Nc2onc(C)c2Br)c(C)s1
17 | > 250 °C | COC(=O)c1cccc2[nH]c(=O)c(-c3csc(-c4ccncc4)n3)cc12
18 | 89.2 to 89.5 °C | CCN(CC)Cc1cccc(-c2cc(OCc3ccccc3)c3cc(OC)ccc3n2)c1
19 | 205 to 209 °C | CCCc1cccc(Cl)c1C(=O)N[C@@H](Cc1ccc(-c2c(C)n(C)c(=O)n(C)c2=O)cc1)C(=O)O
20 | 170 to 171 °C | O=c1ccn(-c2cccc(F)c2)nc1-c1ccnn1-c1ccccc1
21 | 195 to 198 °C | CCCC(=O)Nc1cccc(-c2ccc3nnc(C)n3n2)c1
22 | 106 to 107 °C | CCOc1ccc(CO)c(Oc2ccc(Cl)cc2Cl)n1

More lines, now with the values behind:

Row | SMILES | melting point
23 | Cc1ccnc(O)c1C#N | 230 to 232 °C
24 | CCC(CC)n1c(N)nc2c(Oc3c(C)cc(C)cc3C)nc(C)cc21 | 208 to 210 °C
25 | CCOC(=O)Cc1ccc2c(c1)C(=O)C(NC(=O)OC)CC2 (stereo not given) | 95 to 97 °C
26 | CSc1nnc(COc2cc(C(C)(C)C)c(O)c(C(C)(C)C)c2)s1 | 128 to 130 °C
27 | O=C(NCc1ccc(Cl)cc1)c1cnc2c(F)cc(-c3cc(Br)cs3)cc2c1O | 281 to 283 °C
28 | N#CCCNC(=O)c1n[nH]cc1NC(=O)c1ccoc1 | 250 to 252 °C
29 | OCCn1cc(-c2cc3nccnc3[nH]2)c2ccccc21 | 272 to 273 °C
30 | CC(C)(C)NCC(O)COc1ccccc1-c1csnn1 (stereo not given) | 99 to 100 °C
31 | COc1ccc2c3c1OC1C[C@@H](O)C=CC31CCN(C(=O)NC(C)C)C2 (stereo not given in full) | 106 to 108 °C
32 | CCCCCCCCCCS(=O)(=O)N[C@H]1CCCNC(=O)C1 | 98 to 99 °C
33 | COc1ccc(N)cc1OCCCN1CCC(c2noc3cc(F)ccc23)CC1 | 94 to 95 °C
34 | CCc1c2c(c(C)[nH]c1=O)CC(c1ccccn1)CC2 (stereo not given) | 300 °C
35 | O=C(O)Cc1c(C(=O)c2ccc(Cl)cc2)[nH]c2ccc(OC(F)(F)F)cc12 | 195 °C
36 | CCC=C(c1ccccc1N1CCCCC1)C(C(N)=O)c1ccc(C(=O)OCC)cc1 (stereo not given) | 115 to 117 °C
37 | CCCCCCCCCCCC=C1NN=CN1N | 40 to 43 °C
38 | CN(C)c1ccc(-c2cnc3[nH]cc(C(=O)N[C@@H](C(=O)N4CC(C#N)C4)C4CC4)c3n2)cc1 | 175 to 180 °C
39 | N#Cc1c(N2CCN(C(=O)c3cccs3)CC2)c2ccccc2n(Cc2ccc(F)cc2)c1=O | 258 °C
40 | OCc1cc2cc(-c3ccccc3)ccc2o1 | 134 to 135 °C

Source: a melting point compilation (Tetko et al.; mined from patent text by program, amines drawn as free bases though some values may be those of a salt)
